From the NIST ThermoML archive (doi:10.1016/j.fluid.2015.02.018)
± gives the expanded uncertainty stated by the source.

Experiments:
[1] = Molar enthalpy of transition or fusion; conditions: Crystal; DSC
[2] = DTA; for Normal melting temperature: Crystal

Row | Molar enthalpy of transition or fusion [1] [kJ/mol] | Normal melting temperature [2] [°C] | Glass transition temperature ([2]; Glass) [°C] | Compound
1 | 45.3 ± 1 | 93.7 ± 0.4 | 18.7 ± 0.4 | OCCN1CCN(CCCN2c3ccccc3Sc3ccc(Cl)cc32)CC1 [perphenazine]
2 | 76.1 ± 1.6 | 193.2 ± 0.4 |  | CN1[C@@H](CC(=O)c2ccccc2)CCC[C@H]1C[C@H](O)c1ccccc1.Cl [(-)-lobeline hydrochloride]
3 | 75.4 ± 1.5 | 160.5 ± 0.4 |  | COc1ccc2c(c1)c(CC(=O)O)c(C)n2C(=O)c1ccc(Cl)cc1
4 | 25.9 ± 0.6 | 269.1 ± 0.4 |  | Cn1c(=O)c2[nH]cnc2n(C)c1=O.Cn1c(=O)c2[nH]cnc2n(C)c1=O.NCCN [aminophylline]
